In assay [1] the test system is Mouse embryonic fibroblasts (MEFs). Briefly: iPS cell establishment from Nanog-GFP reporter MEFs, 4 genes (Oct3/4, Sox2, Klf4, c-Myc) introduced, with p38 inhibitors. The format is cell-based. Particulars: for number of Nanog-GFP-positive colonies compared with physiological saline or DMSO: 10 μM inhibitor added on days 1 to 4 after the infection. The protocol:
Mouse embryonic fibroblasts (MEFs) from a Nanog reporter mouse carrying Nanog-GFP—IRES-Puro^r [Okita K. et al, Nature 448, 313-317 (2007)] were transfected with four genes using a retrovirus to induce iPS cells.
Each retrovirus for reprogramming was prepared by transferring each of retroviral expression vectors (pMXs-Oct3/4, pMXs-Sox2, pMXs-Klf4, pMXs-cMyc:Cell, 126, 663-676 (2006)) to Plat-E cells (Morita, S. et al., Gene Ther. 7, 1063-1066) that had been seeded to a 6-well culture plate (Falcon) at 0.6×10^6 cells per well on the day before. The cells were cultured at 37° C. in the presence of 5% CO2 using DMEM/10% FCS [a culture broth prepared by adding 10% fetal calf serum to DMEM (Nacalai Tesque)]. To facilitate vector transfer, 4.5 μL of FuGene6 transfection reagent (Roche) was placed in 100 μL of Opti-MEM I Reduced-Serum Medium (Invitrogen), and the medium was allowed to stand at room temperature for 5 minutes. Subsequently, 1.5 μg of each expression vector was added, and the medium was allowed to further stand at room temperature for 15 minutes, after which they were added to the Plat-E culture broth. On day 2, the Plat-E supernatant was replaced with a fresh supply of the medium. On day 3, the culture supernatant was recovered and filtered through a 0.45 μm sterile filter (Whatman), and polybrene (Nacalai) was added at 4 μg/mL to yield a viral liquid.
Mouse embryonic fibroblasts (MEFs) were isolated from a fetal Nanog reporter mouse (13.5 days after fertilization). […] Not expressing the puromycin resistance gene as well, MEFs are susceptible to the antibiotic puromycin. As such, MEFs were seeded to a 6-well culture plate (Falcon), previously coated with 0.1% gelatin (Sigma), at 1.0×10^5 cells per well. DMEM/10% FCS served as the culture broth at 37° C. in the presence of 5% CO2. The following day, each retrovirus liquid was added, and this was followed by overnight infection to introduce the genes.
On day 1 after the viral infection, the medium for the MEFs was removed, and the cells were washed by the addition of 1 mL of PBS. After removing the PBS, 0.25% Trypsin/1 mM EDTA (Invitrogen) was added, and a reaction was carried out at 37° C. for about 5 minutes. After the cells floated up, the cells were suspended by the addition of an ES cell culture medium and 2500 cells were seeded to a 100 mm dish having mitomycin C-treated STO feeder cells seeded thereto previously. Cultivation was continued while replacing the ES cell culture medium with a fresh supply of the same medium every two days until a visible colony emerged.
To determine the effects of p38 inhibitors on the establishment of iPS cells by the introduction of the four mouse genes, cultivation was continued with the addition of 10 μM of the p38 inhibitor 5B202190, SB239063, or SB203580 (Calbiochem Company) to the medium per the schedule shown below. All these inhibitors were used in solution in DMSO. • 1. Oct3/4, Sox2, Klf4, c-Myc, each derived from mouse, saline • 2. Oct3/4, Sox2, Klf4, c-Myc, each derived from mouse, DMSO • 3. Oct3/4, Sox2, Klf4, c-Myc, each derived from mouse, SB202190 10 μM Day 1-4) • 4. Oct3/4, Sox2, Klf4, c-Myc, each derived from mouse, SB202190 10 μM (Day 1-8) • 5. Oct3/4, Sox2, Klf4, c-Myc, each derived from mouse, SB202190 10 μM (Day 9-16) • 6. Oct3/4, Sox2, Klf4, c-Myc, each derived from mouse, SB202190 10 μM (Day 1-16) • 7. Oct3/4, Sox2, Klf4, c-Myc, each derived from mouse, SB239063 10 μM (Day 1-4) • 8. Oct3/4, Sox2, Klf4, c-Myc, each derived from mouse, SB239063 10 μM (Day 1-8) • 9. Oct3/4, Sox2, Klf4, c-Myc, each derived from mouse, SB239063 10 μM (Day 9-16) • 10. Oct3/4, Sox2, Klf4, c-Myc, each derived from mouse, SB239063 10 μM (Day 1-16) • 11. Oct3/4, Sox2, Klf4, c-Myc, each derived from mouse, SB203580 10 μM (Day 1-4) • 12. Oct3/4, Sox2, Klf4, c-Myc, each derived from mouse, SB203580 10 μM (Day 1-8) • 13. Oct3/4, Sox2, Klf4, c-Myc, each derived from mouse, SB203580 10 μM (Day 9-16) • 14. […]

For assay [2], the system named is Human dermal fibroblasts (Tig109 line). Briefly: Human iPS cell colony formation, 4 genes introduced, various p38 inhibitors. The format is cell-based. The following applies: for number of iPS cell colonies on day 40 after the infection: no colonies in either control group. How it is done:
Human dermal fibroblasts (Tig109 line) were treated using a lentivirus (pLenti6/UbC-Slc7a1) according to the method described by Takahashi, K. et al. in Cell, 131: 861-872 (2007), to express the mouse ecotropic virus receptor Slc7a1 gene. These cells (2×10^5 cells/10 cm dish) were transfected with the four genes using a retrovirus according to the method described by Takahashi, K. et al. in Cell, 131: 861-872 (2007); each compound was added per the schedule shown below. • 1. Oct3/4, Sox2, Klf4, c-Myc, each derived from human, saline • 2. Oct3/4, Sox2, Klf4, c-Myc, each derived from human, DMSO (Day 5-35) • 3. Oct3/4, Sox2, Klf4, c-Myc, each derived from human, SB202190 10 μM (Day 5-20) • 4. Oct3/4, Sox2, Klf4, c-Myc, each derived from human, SB239063 10 μM (Day 5-20) • 5. Oct3/4, Sox2, Klf4, c-Myc, each derived from human, SB202190 10 μM (Day 21-35) • 6. Oct3/4, Sox2, Klf4, c-Myc, each derived from human, SB239063 10 μM (Day 21-35) • 7. Oct3/4, Sox2, Klf4, c-Myc, each derived from human, SB202190 10 μM (Day 5-35) • 8. Oct3/4, Sox2, Klf4, c-Myc, each derived from human, SB239063 10 μM (Day 5-35) On days 24, 32, and 40 after the infection, iPS cell colonies were counted. When the four factors (Oct3/4, Sox2, Klf4, C-Myc) were combined with SB239063 added on days 5 to 20 after the infection, the number of human iPS cell colonies increased on day 24 after the infection.

Regarding `Oc1ccc(-c2nc(-c3ccc(F)cc3)c(-c3ccncc3)[nH]2)cc1` [SB202190, 4-(4-fluorophenyl)-2-(4-hydroxyphenyl)-5-(4-pyridyl)imidazole], in assay [1], the “number of Nanog-GFP-positive colonies compared with physiological saline or DMSO” value is recorded as “increased”. Moreover, in assay [2] (10 μM inhibitor), the “number of iPS cell colonies on day 32 after the infection” value is reported as “capable of increasing the number of iPS cell colonies” and the “number of iPS cell colonies on day 40 after the infection” value is “increased remarkably”. For the same compound, the “effect on iPS cell colony number on day 32, inhibitor added day 21 to day 35” value in assay [2] (10 μM, Day 21-35) is on record as “remarkable effects”.
In the case of `COc1nccc(-c2c(-c3ccc(F)cc3)ncn2[C@H]2CC[C@H](O)CC2)n1` [SB239063, trans-1-(4-Hydroxycyclohexyl)-4-(4-fluorophenyl)-5-(2-methoxypyrimidin-4-yl)imidazole], the “number of Nanog-GFP-positive colonies compared with physiological saline or DMSO” value in assay [1] was “increased”. Also, in assay [1] (10 μM inhibitor on days 1 to 4, counted day 28), the “effect on colony count when measured on day 28 after the infection” value is “remarkable”. The “colony count compared with cells treated with physiological saline or DMSO” value in assay [1] (10 μM inhibitor on days 1 to 4 after the infection, FIG. 1) was “tended to increase”. In addition, the “number of human iPS cell colonies on day 24 after the infection” value in assay [2] (10 μM added on days 5 to 20) is given as “increased”. In addition, in assay [2] (10 μM inhibitor), the “number of iPS cell colonies on day 40 after the infection” value is listed as “two”.
